SMILES	melting point [°C]
CC1(C)CN=C(Cc2ccc(Cl)cc2)NC1	130 to 132
CC(C)(C)OC(=O)N1c2ncc(Br)cc2C=CC1N (stereo not drawn)	> 230
O=C(Nc1ccc(Cl)cc1)NS(=O)(=O)c1ccc2c(c1)CCO2	190 to 194
Cc1ncnn1-c1cc(F)ccc1CNC(=O)c1nc2n(c(=O)c1O)CCN2C(C)C	212
Nc1nc(NCc2ccccc2)nc(C(F)(F)F)n1	183 to 185
CC(C)(OCc1cc2nc(Cl)ccc2n1S(=O)(=O)c1ccc2c(c1)OCO2)C(=O)O	172
Fc1ccc(Cn2c(NC3CCN(CCNCCc4c[nH]c5ccccc45)CC3)nc3ccccc32)cc1	170
CC1(C)OC2c3cc(F)ccc3N3CCC2(CC3)O1 (stereo not drawn)	120 to 122
O=C(NC1CCOCC1)c1ccc2nonc2c1	204 to 205
COC(=O)C(=CNC(C)=O)C(C)=O	60 to 62
Nc1ccc(S(F)(F)(F)(F)F)cc1	63 to 65
COc1cc(Cl)c2c(=O)c(Br)coc2c1	176 to 177
O=Cc1cc(C#Cc2cccc(Br)c2)c[nH]1	152 to 156
CN(C)Cc1ccc(C=CC(=O)N2CCc3c([nH]c4ccccc34)C2c2ccc3c(c2)CCO3)cn1 (stereo not drawn)	163
CCCCCCCCCCCCCCCc1cc2cccc(C(=O)O)c2[nH]1	93 to 99
O=Cc1csc2cc([N+](=O)[O-])ccc12	187 to 192
CS(=O)(=O)N1Cc2cccc(-c3ccc4cnc(Nc5ccc(C6CN(CC(N)=O)C6)cc5)nn34)c2C1	216 to 218
Cc1cc(NCCNCC(O)COc2ccccc2)n2ncnc2n1 (stereo not drawn)	126 to 127
CCCCCc1nc(N(C)C)nc(C)c1O	61 to 62
CNCCC(=O)N1c2ccccc2N2CCc3cccc(c32)C1C (stereo not drawn)	124 to 126
N[C@H]1CC[C@@H](C(=O)N2CCC(c3[nH]nc4c3C(=O)c3c(NC(=O)NN5CCOCC5)cccc3-4)CC2)CC1	202 to 204
O=[N+]([O-])c1cc(Cl)c(I)c(Cl)c1	147 to 150

SMILES	melting point [°C]
CCCCN(CCCCCCCCSc1nc(-c2ccccc2)c(-c2ccccc2)[nH]1)C(=O)Nc1ccc(F)cc1F	114 to 115
O=C1NC(=S)CCC1N1C(=O)c2ccccc2C1=O (stereo not drawn)	225 to 226
CCCCCCC(C)(C)c1ccc(C2CC(=O)CC(=O)C2)c(OCc2ccccc2)c1	102 to 103
Cn1ncc2[nH]c3cccc(-c4cccc(O)c4)c3c(=O)c21	> 300
O=[N+]([O-])c1ccc(Oc2c(Cl)cc(C(F)(F)F)cc2Cl)cc1S(=O)(=O)c1cc[nH]n1	159
CCC1(CC)C(=O)N(C(C)(C)C)CC(C)(C)N1OC(=O)Nc1ccccc1	160 to 163
O=C1c2cccc(NCc3ccccc3)c2C(=O)c2cccc(NCc3ccccc3)c21	218 to 220
O=c1[nH]c2ccccc2c(=O)n1C1CCN(Cc2ccccc2)CC1	223
CC1Cc2cc3c(cc2C(c2ccc([N+](=O)[O-])cc2)=NN1C(N)=NO)OCO3 (stereo not drawn)	138 to 145
OCCN1CCC(=C2c3sccc3CCn3ccnc32)CC1	155
O=C(O)Cc1ccc2c3c(ccc2c1)OCC3	181 to 183
Oc1ccc2cc(Br)ccc2c1-c1c(O)ccc2cc(Br)ccc12	109 to 114
COc1c(N2CC(C)C(NC3CC3)C(C)C2)c(F)c(N)c2c(=O)c(C(=O)O)cn(C3CC3)c12 (stereo not drawn)	248
COc1ccc(NC(=O)NC2C(=O)Nc3ccccc3N(CCC(C)C)C2=O)cc1 (stereo not drawn)	150 to 152
O=C(O)C(Cc1ccccc1)Cc1ccc([N+](=O)[O-])cc1 (stereo not drawn)	104 to 105
CC=C(Cl)C(Cl)CC(O)(Cn1cncn1)C1(Cl)CC1 (stereo not drawn)	79 to 80
CC(CSc1nn(-c2ccccc2)c2c1CCC2)C(=O)O (stereo not drawn)	84 to 85
Cc1cn(C)cc(-c2ccccc2)c1=O	111 to 113
O=[N+]([O-])C1(F)C=C(OCC2CCCSC2)C(Cl)=CC1 (stereo not drawn)	100 to 103
C#CCCCCC12SCC(CCC)(CS1)CS2	88
O=C(O)c1ccccc1OCCN1CCC(c2cn(Cc3ccc(Cl)s3)c3ccccc23)CC1	178 to 179
COc1cc(Cl)cc(C)c1Nc1nc2c(Cl)ccc(C(=C(C)C)C(C)C)c2n1C	166 to 168

SMILES	melting point [°C]
COc1cc2c(=O)cc3c4ccccc4sn3c2c(OC)c1OC	196
COc1cc(OC)cc(C(=O)P2(=O)Oc3ccccc3-c3ccccc32)c1 (stereo not drawn)	140 to 142
CNCCc1cc2c(cc1CC(=O)c1ccc(OC)c(OC)c1C(=O)O)OCO2	176 to 179
CCC(COS(C)(=O)=O)Nc1ccc(Cl)cc1[N+](=O)[O-] (stereo not drawn)	91 to 93
COC(=O)c1cc(O)ccc1NC(=O)c1ccc(Cl)cc1Cl	181 to 182
CCOC(=O)c1c[nH]c2ccc(Cc3ccccc3)cc12	119 to 121
Cc1sc2cc(CO)ccc2c1C(=O)O	195 to 196
Clc1cnn(CCCCN2CCN(c3ccccc3)CC2)c1	58 to 61
COC(=O)c1cccc(C=Cc2nc3cc(F)ccc3s2)c1	172 to 173
O=S(=O)(c1cccc(-c2cccc(-c3nc(-c4ccc(C(F)(F)F)cc4)cc(C(F)(F)F)n3)c2)c1)N(CCO)CCO	112
C[C@@H]1Cc2ccsc2[C@H](C)N1CCNC(=O)c1ccc(F)cc1 (relative stereo)	110 to 114
Cc1cnccc1CO	77 to 80
O=C(NC(Cc1ccc(OCc2ccc(Cl)cc2)cc1)C(=O)O)c1cn2ccc(-c3ccc(Cl)cc3)cc2n1 (stereo not drawn)	261
O=C(Nc1cnccn1)Nc1cccc2c1C1CC3(CCN1C2=O)SCCS3 (stereo not drawn)	236
N#Cc1ccc(N(Cc2ccc(OS(N)(=O)=O)c(F)c2)n2cnnc2)cc1-c1ccccc1	198 to 200
CCOC(=O)C1=C(COCCNC2=NC(=O)CS2)NC(C)=C(C(=O)OC)C1c1cccc(Cl)c1Cl (stereo not drawn)	204 to 205
Cc1ccc(Nc2nc(-c3ccc(-c4ccccn4)s3)cs2)nc1	197 to 199
Cc1cc(SC(C)C)c(NC(=O)CN2CCN(CCSc3nc4cccc([N+](=O)[O-])c4o3)CC2)c(SC(C)C)n1	57 to 59
Cc1cc(NC(=O)c2cccc(CSc3ncnc4[nH]ncc34)c2)ccc1C(C)C	187 to 189
CC(C)(C)C1CSC2(CCC(C=C(Br)Br)CC2)SC1 (stereo not drawn)	143
COC(=O)Cn1c(C(=O)Nc2nc(-c3cc(Br)c(OC)cc3OC)c(CCC3CCCCC3)s2)cc2ccccc21	110 to 114

Continued, values first:

melting point [°C]	SMILES
173	Cc1cc(C(=O)O)ccc1C1=CCCc2ccccc21
138	O=C1c2ccccc2C(=O)N1CCCCN1CCN(c2ncccn2)CC1
170	Cc1nc2cc(CN3CCN(C(c4ccccc4)c4ccccc4)CC3)ccc2n1CCSc1ccccc1
59 to 62	CCCC=Cc1c(C(C)C)nc(C(C)C)c(CO)c1-c1ccc(F)cc1F
138 to 139	Cc1cnc(-c2cc3c(OC[C@@H](O)CN4CCC(c5ccc6ccccc6c5)CC4)cccc3s2)o1
191 to 194	COc1ccc(-n2nc(Cl)cc2-c2ccc(S(C)(=O)=O)cc2)cc1C#N
209 to 212	O=C1NC(=O)C(c2ccccc2Cl)C1c1cc2c3c(ccn3CCC2)c1 (stereo not drawn)
220 to 222	Cc1ccc(-c2ccc(C(=O)Nc3ccc4nc(CN(C)C)ccc4c3)cn2)cc1
138 to 140	Cc1cccc(NC(=O)N2CCN(CC(=O)N3CC=C(c4cccc(C(F)(F)F)c4)n4ncc(C#N)c43)CC2)c1
168 to 170	OCc1ccc(-c2ccccc2-c2nnn(C(c3ccccc3)(c3ccccc3)c3ccccc3)n2)cc1
91 to 92	CCC(=O)c1ccc(CCN(C(C)=O)S(=O)(=O)c2ccc(Cl)cc2)cc1
81 to 84	N#CCCNC1CCCC1
136	O=C(Nc1ccccc1)c1ccc(F)c2c1CC(N(CCCc1c[nH]c3ccc(F)cc13)C1CCC1)CO2 (stereo not drawn)
58	CCCCCCCCC(=CC=C(O)C(=O)OCC)C(=O)OCC
159	O=C1N[C@H]2OC(c3ccccc3)=N[C@@H]12
60 to 62	CCCCCCCNC(=O)N(C)c1cccc(-c2ccc(CCC(=O)O)cc2OCCC(C)C)c1
180 to 182	COC(=O)c1ccc2c(c1)N(C(=O)c1ccc(-c3ccccc3C(F)(F)F)c(C)c1)Cc1cccn1C2

melting point [°C]	SMILES
88	CCCCN(CCCC)CCCOc1ccc(S(=O)(=O)c2ccccc2C(C)C)cc1
220 to 223	CCOC(=O)C1=C(C)NC(c2csc(NC(C)=O)n2)=NC1c1ccc(F)cc1Cl (stereo not drawn)
143 to 147	O=C(C=Cc1ccccc1)c1cccc(O)c1
88 to 89	COC(=O)c1sccc1NC(=O)OC(C)(C)C
192 to 194	N#Cc1cnn2c1NCCC2c1cccc(C(F)(F)F)c1 (stereo not drawn)
170 to 171	CCn1ncc2c3noc(-c4cccc(OC)c4)c3cnc21
171 to 174	Cc1nc(CC2OC(CO)C(O)C2O)n2nc(Cl)ccc12 (stereo not drawn)
131 to 134	CN1C(=O)CC[C@]2(C)c3ccc(-c4cccc(Cl)c4Cl)cc3CC[C@@H]12
132 to 135	CSc1nnc(-c2ccc(F)cc2)c(-c2ccc(F)cc2)n1
132 to 135	O=C(Nc1ccc(-n2nc(C(F)(F)F)cc2C2CC2)c(F)c1)c1cccc(F)c1F
148 to 150	CCc1nn(CC2CC2)c2cc(C(=O)Nc3c(Cl)cncc3Cl)ccc12
166	COC(C)=CC(=O)Nc1cccc(N(C)C(N)=O)c1
172 to 174	COc1ccc([C@H](C)NC(=O)COc2cc(C(F)(F)F)c3c(-c4ccccc4)nn(C)c3n2)cc1
158 to 160	CC(C)(CO)Oc1ccc(-c2ccc(N3CCCCC3)cc2)cc1
69.5 to 71.5	Brc1cccc2c(-c3ccccc3)coc12
154	O=C(O)C1=Cc2cc(Oc3ccc(C(F)(F)F)cc3)ccc2OC1C(F)(F)F (stereo not drawn)
